Assay: Case report: incontinence person with enlarged prostate
Type: in vivo, human
Conditions: prescribed for enlarged prostate
Excerpt: The 9-herb composition and Incontinence. Person diagnosed with having an enlarged prostate suffered from frequent-urination problems including increased daily frequency and reduced volume. They had the urge to urinate every two hours and the amount was only a few drops. Their symptoms were attributed to old age. […] They are able to urinate what they consider a normal amount of urine in a steady stream as opposed to the dribbling they experienced prior to taking the 9-herb composition. […] Because they are sleeping better, they have more energy throughout the day.

CC(C)(C)NC(=O)[C@H]1CC[C@H]2[C@@H]3CC[C@H]4NC(=O)C=C[C@]4(C)[C@H]3CC[C@]12C [PROSCAR]
effect on urination problem: did not alleviate the urination problem
